Experimental data: patent US20240245677A1, “SELECTED COMPOUNDS FOR TARGETED DEGRADATION OF BRD9” (C4 THERAPEUTICS, INC., priority 2021, published 2024)

What was measured:
[1] = Crystallization from hot saturated solutions by slow cooling; type: physicochemical; details: for Comments / XRPD: hot saturated solution
Protocol: Samples with no precipitates were put in −20° C. freezer for crystallization. Precipitates were collected by centrifuged. Solid parts (wet cakes) were investigated by XRPD.

GSPT1 = target: T1, GSPT1 (Homo sapiens, UniProt P15170+Q96SW2); experiment: GSPT1 HiBiT degradation assay in HEK293T.114 cells; type: cell-based; details: 6 hours
T1 construct: CRISPR-edited to endogenously express HiBiT tagged GSPT1; host or cells: HEK293T.114
T1 sequence (P15170 whole entry): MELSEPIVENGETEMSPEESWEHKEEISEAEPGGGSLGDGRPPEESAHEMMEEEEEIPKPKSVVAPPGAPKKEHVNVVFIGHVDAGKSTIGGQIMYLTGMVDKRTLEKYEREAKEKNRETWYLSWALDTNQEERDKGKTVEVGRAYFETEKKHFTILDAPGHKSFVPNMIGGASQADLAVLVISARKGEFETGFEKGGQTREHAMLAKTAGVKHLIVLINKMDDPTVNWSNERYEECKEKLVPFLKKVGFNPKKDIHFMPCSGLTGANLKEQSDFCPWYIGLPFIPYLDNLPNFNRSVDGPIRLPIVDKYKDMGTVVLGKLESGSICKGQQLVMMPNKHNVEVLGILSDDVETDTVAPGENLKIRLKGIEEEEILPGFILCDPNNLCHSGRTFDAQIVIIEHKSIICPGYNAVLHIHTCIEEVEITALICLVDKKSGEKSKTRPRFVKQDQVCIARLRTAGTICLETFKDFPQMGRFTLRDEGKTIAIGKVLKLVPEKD
T1 sequence (Q96SW2 whole entry): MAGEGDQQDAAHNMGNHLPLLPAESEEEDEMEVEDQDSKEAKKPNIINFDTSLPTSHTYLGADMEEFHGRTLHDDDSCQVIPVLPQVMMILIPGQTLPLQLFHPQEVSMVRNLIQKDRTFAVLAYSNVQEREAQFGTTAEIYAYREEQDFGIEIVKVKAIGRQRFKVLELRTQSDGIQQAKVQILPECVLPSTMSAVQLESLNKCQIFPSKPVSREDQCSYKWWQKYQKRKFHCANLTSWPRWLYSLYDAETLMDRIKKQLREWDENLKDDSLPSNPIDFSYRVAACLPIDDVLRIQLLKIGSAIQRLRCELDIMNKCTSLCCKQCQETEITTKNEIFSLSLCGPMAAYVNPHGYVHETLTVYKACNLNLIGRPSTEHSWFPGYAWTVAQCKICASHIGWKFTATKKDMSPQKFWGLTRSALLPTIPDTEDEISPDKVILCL
T1 sequence (Q16531 2-1140 partner limits assumed): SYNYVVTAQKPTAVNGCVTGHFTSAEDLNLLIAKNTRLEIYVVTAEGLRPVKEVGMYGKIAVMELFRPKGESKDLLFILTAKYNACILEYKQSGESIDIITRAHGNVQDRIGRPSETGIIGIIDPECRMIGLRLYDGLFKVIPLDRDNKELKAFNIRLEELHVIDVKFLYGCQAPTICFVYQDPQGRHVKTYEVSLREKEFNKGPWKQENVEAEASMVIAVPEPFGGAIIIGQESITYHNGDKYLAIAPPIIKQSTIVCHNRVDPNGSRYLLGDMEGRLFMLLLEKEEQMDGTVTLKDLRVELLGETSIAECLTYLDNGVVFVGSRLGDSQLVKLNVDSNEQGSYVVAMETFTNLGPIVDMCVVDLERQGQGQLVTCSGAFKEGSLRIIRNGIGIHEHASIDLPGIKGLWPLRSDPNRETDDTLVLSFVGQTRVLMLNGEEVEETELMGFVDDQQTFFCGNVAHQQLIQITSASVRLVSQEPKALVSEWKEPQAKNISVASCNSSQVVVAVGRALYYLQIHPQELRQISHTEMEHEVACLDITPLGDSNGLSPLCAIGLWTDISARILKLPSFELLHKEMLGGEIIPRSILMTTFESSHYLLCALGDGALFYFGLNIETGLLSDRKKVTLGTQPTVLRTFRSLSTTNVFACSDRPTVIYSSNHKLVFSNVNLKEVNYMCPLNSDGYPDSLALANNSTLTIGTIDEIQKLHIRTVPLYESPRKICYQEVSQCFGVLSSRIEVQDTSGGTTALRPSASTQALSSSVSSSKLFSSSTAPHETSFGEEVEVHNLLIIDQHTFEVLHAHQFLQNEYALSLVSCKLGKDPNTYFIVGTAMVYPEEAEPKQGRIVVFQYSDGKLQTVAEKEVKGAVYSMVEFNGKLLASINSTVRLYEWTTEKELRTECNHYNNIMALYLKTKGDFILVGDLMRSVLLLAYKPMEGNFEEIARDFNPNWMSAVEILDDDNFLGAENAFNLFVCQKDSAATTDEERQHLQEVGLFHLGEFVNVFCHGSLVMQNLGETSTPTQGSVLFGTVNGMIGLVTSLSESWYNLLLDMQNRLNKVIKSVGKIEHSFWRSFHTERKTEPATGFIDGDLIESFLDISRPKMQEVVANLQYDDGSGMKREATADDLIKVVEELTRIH
Text: This assay evaluated the off-target degradation of the cereblon neosubstrate, Eukaryotic peptide chain release factor GTP-binding subunit ERF3A (GSPT1), induced by treatment with Compound 1 as measured by luminescence using Nano-Glo HiBiT® Lytic Assay System in 293T cells CRISPR-edited to endogenously express HiBiT tagged GSPT1.
Nano-Glo® HiBiT Lytic Assay System was purchased from Promega (Catalog No. N3050, Madison, WI, USA). HEK293T cells were obtained from ATCC (Catalog No. CRL-3216, Manassas, VA, USA), and maintained in DMEM medium (Catalog No. 11995065, ThermoFischer Scientific, Waltham, MA, USA) supplemented with 10% heat inactivated FBS (Catalog No. 16000-044, Gibco, Grand Island, NY, USA) at 37° C. in an atmosphere of 5% CO2 in air. The HiBiT polypeptide tag was introduced into the N-terminus of the endogenous GSPT1 locus by CRISPR-Cas9 to produce the HEK293T.114 modified cell line. The HiBiT polypeptide allows reconstitution of NanoBiT enzyme following cell lysis and addition of the complementing LgBiT polypeptide that activates substrate to produce a luminescent signal that is directly proportional to the amount of HiBiT-tagged GSPT1.
HEK293T.114 cells were routinely sub-cultured to maintain cell density between 30-80% confluence, not to exceed 20 passages. Cells were washed with PBS, trypsinized for 5 minutes at 37° C., and resuspended in fresh growth media without phenol red. An aliquot was diluted 2× with Trypan Blue solution 0.4% (Catalog No. 15250061, ThermoFisher Scientific, Waltham, MA, USA) and cell count determined. Cell concentration was adjusted with growth media without phenol red to 2×10^5 cells/mL.
The 10 mM DMSO stock solutions of Compound 1 or CC0885 were serially diluted (half log) in DMSO to generate 11-point dose series (10000, 3160, 1000, 316, 100, 31.6, 10, 3.2, 1, 0.32, 0.1 μM) in an acoustic ready 384-well low dead volume microplate (Catalog No. LP-0200, Beckman Coulter Life Sciences, Indianapolis, IN, USA). Using an Echo 550 Acoustic Liquid Handler (Beckman Coulter Life Sciences, Indianapolis, IN, USA), 30 nL of serially diluted compound solutions were dispensed in duplicate to each 384-well black TC-treated microplate (Catalog No. 3571, Corning, Glendale, CA, USA). 30 nL DMSO was transferred to all control wells.
30 μL of HEK293T.114 cells suspended in growth media without phenol red at 2×10^5 cells/mL (6000 cells/well) were dispensed using a Multidrop Combi Reagent Dispenser (Catalog No. 5840300, ThermoFisher Scientific, Waltham, MA, USA) to each well of columns 1-23 of 384-well black TC-treated microplates containing duplicate concentration range of test compounds and DMSO controls. 30 μL of media was dispensed to column 24 as background positive control (P). Plates were spun briefly at 1000 rpm and cells were incubated at 37° C., 5% CO2 for 6 hours. Final concentration of DMSO was 0.1% for all samples.
Cellular GSPT1 protein level was determined based on quantification of HiBiT using Nano-Glo® HiBiT Lytic Assay System (Promega). 30 μL Nano-Glo Lytic Assay reagents were added to each well of columns 1-23 and luminescence was acquired on EnVision® Multilabel Reader (Catalog No. 2104-0010, Perkin Elmer Inc., Dumfries, VA, USA). Column 24 (cells without Nano-Glo reagent addition) was used as plate background or positive control (P). Cells treated in the absence of the test compound (0.1% DMSO vehicle) were the negative control (N)/
Percent response of compound-treated samples (T) were calculated by normalizing to the DMSO treated negative (N) controls on the same microtiter plate after background (i.e., positive control) signal subtraction:
Curve fit and DC50 (concentration that degrades 50% GSPT1) determination was performed by 4 parametric logistic fit analysis using software such as GraphPad Prism software (GraphPad Software, LLC, San Diego, CA, USA). […]

COc1cc(-c2cn(C)c(=O)c(C)c2C)cc(OC)c1CN1CC[C@H](N2CCN(c3ccc(N[C@H]4CCC(=O)NC4=O)cc3F)CC2)C(F)(F)C1 [Compound 1, (S)-3-((4-(4-((S)-1-(2,6-dimethoxy-4-(1,4,5-trimethyl-6-oxo-1,6-dihydropyridin-3-yl)benzyl)-3,3-difluoropiperidin-4-yl)piperazin-1-yl)-3-fluorophenyl)amino)-piperidine-2,6-dione]
Comments: form after seeding ([1]; 2-MeTHF, add Pattern G as seeds, slurry for 5 days): Pattern G
Comments ([1]; 2-MeTHF): Clear solution
XRPD ([1]; Acetone): Pattern B
XRPD ([1]; Ethanol): Pattern F
Comments ([1]; Ethyl acetate): Clear solution
Comments ([1]; Methanol): Clear solution
% GSPT1 Remaining, Mean (GSPT1; 0.100 nM): 97.4%
% GSPT1 Remaining, Mean (GSPT1; 0.316 nM): 86.7%
% GSPT1 Remaining, Mean (GSPT1; 1.00 nM): 70.8%
% GSPT1 Remaining, Mean (GSPT1; 3.15 nM): 34.4%
% GSPT1 Remaining, Mean (GSPT1; 10.0 nM): 12.4%
% GSPT1 Remaining, Mean (GSPT1; 31.5 nM): 6.0%
% GSPT1 Remaining, Mean (GSPT1; 100 nM): 4.0%
% GSPT1 Remaining, Mean (GSPT1; 317 nM): 3.5%
% GSPT1 Remaining, Mean (GSPT1; 1000 nM): 3.2%
% GSPT1 Remaining, Mean (GSPT1; 3161 nM): 3.0%
% GSPT1 Remaining, Mean (GSPT1; 9990 nM): 3.8%
DC50 (GSPT1; GSPT1-HiBiT, HEK293T.114 cells, read-out: Geometric Mean DC50): > 10 µM
Emax (GSPT1; GSPT1-HiBiT, HEK293T.114 cells, read-out: Mean Emax (%) ± SD): 93.9 ± 5.85%
effect on degradation of GSPT1 (GSPT1; concentrations up to 10 μM): no significant effect
